# In patent publication US20080248012A1, “Erythrocyte Function Modifying Substance” (KEIO UNIVERSITY, priority 2004, published 2008):
# “Also recorded” adds a separate entry of the source.
# Tested on: human erythrocytes
# Experiment: ATP release from erythrocytes at adjusted oxygen / CO2 partial pressure, luciferin assay
# Format: cell-based
# Conditions: for ATP release at various CO2 partial pressures: PCO2 0 to 80 mmHg, 5 minutes; for ATP release from erythrocytes in relation to oxygen partial pressure: PO2 0-150 mmHg, 37° C., 5 min, bezafibrate 10^−4 mol/L (30 min), 100% CO gas 1 min, NO 0.5 equivalents to hemoglobin
# Procedure: Human peripheral blood sample (20 ml) was taken, heparinized and centrifuged at 2000 rpm for 7 minutes. The erythrocyte pellet was collected and washed. Then, an erythrocyte suspension (1×10^7 cells/ml) was prepared with Krebs buffer. A tightly sealed cuvette containing 1.8 ml of Krebs buffer in which oxygen concentration is adjusted at a desired level within a range of 0-150 mmHg was incubated at 37° C. A 200 μl aliquot of the erythrocyte suspension was injected into the tightly sealed cuvette with a microsyringe. After 5 minutes, the cuvette was placed in ice at 4° C. to terminate the reaction. A 200 μd sample was taken while it was still 4° C., and centrifuged. The ATP in the resultant supernatant was quantitatively determined by luciferin assay.
# In this example, the effects of carbon monoxide-saturated erythrocytes (CO-Hb) and NO treated erythrocytes (αNO-Hb) on ATP release were examined. The method was as described in Example 1 above. In order to examine the effect of NO, an experiment was conducted using erythrocytes prepared as described below. Briefly, collected erythrocytes were completely deoxygenated by feeding argon gas. Then, NO-glutathione was added thereto so that the concentration of this substance to the concentration of Hb was 1:2. Several minutes after the addition, the erythrocytes were centrifuged and recovered. The hemoglobin contained in the above erythrocytes is expressed as “αNO-Hb”.
# Briefly, adenosine was added to the extracellular fluid of erythrocytes for 5 minutes. To a tightly sealed cuvette containing Krebs buffer adjusted to have a desired oxygen partial pressure within a range of 0-150 mmHg, the erythrocyte suspension was injected and the reaction was terminated 1 minute thereafter.
# The method used was according to the method in Example 1. The amounts of ATP release when erythrocytes were exposed to various CO2 partial pressures (PCO2) from 0 to 80 mmHg for 5 minutes were measured.
smiles,measurement,setting,value
"O=S(=O)(O)c1cc(N=C=S)ccc1C=Cc1ccc(N=C=S)cc1S(=O)(=O)O [DIDS, 4,4′-diisothiocyanate-stilbene-2,2′-disulfonic acid]",ATP release increase due to low oxygen,"10^−4 mol/L DIDS, oxygen partial pressures of 0-140 mmHg",inhibits ATP release increase due to low oxygen
same,"amount of ATP release, DIDS addition vs no addition","CO(+) erythrocytes, presence/absence of adenosine",no difference
same,"ATP release increase due to low oxygen, concentration-dependent effect","CO-untreated erythrocytes, Anoxia 0 mmHg vs Normoxia",inhibited depending on the concentration of DIDS
O=C=O [carbon dioxide],ATP release at various CO2 partial pressures,Anoxia (no oxygen state),not affected by PCO2
same,ATP release at various CO2 partial pressures,Normoxia,increased at 60-80 mmHg
"[C-]#[O+] [CO, carbon monoxide]",ATP release from erythrocytes in relation to oxygen partial pressure,,this ability was completely eliminated
same,ATP release from erythrocytes in relation to oxygen partial pressure,listed as carbon monoxide,released little ATP regardless of the oxygen partial pressure
Nc1ncnc2c1ncn2[C@@H]1O[C@H](CO)[C@@H](O)[C@H]1O [adenosine],enhancement of ATP release under normal oxygen concentration,1 μmol/L adenosine in extracellular fluid 5 min,enhanced almost two times
same,enhancement of ATP release under no oxygen or low oxygen,"1 μmol/L adenosine in extracellular fluid 5 min, then no/low oxygen 1 minute",enhanced almost two times; also recorded: increases ATP release about two times; also recorded: enhanced about two times
same,"ATP release enhancement, adenosine combined with carbon dioxide","Normoxia, raised PCO2, in the presence of adenosine",synergetic high effect
"N[C@@H](CCC(=O)N[C@@H](CSN=O)C(=O)NCC(=O)O)C(=O)O [NO derivative, NO-glutathione]",ATP release from erythrocytes in relation to oxygen partial pressure,,released ATP constantly regardless of the oxygen partial pressure
"[N]=O [NO, nitric oxide]",ATP release from erythrocytes in relation to oxygen partial pressure,,released ATP constantly regardless of the oxygen concentration
